Laboratory results: article PMC12229235 (Science signaling, 2024)

Target: AKT3 (Homo sapiens, UniProt Q9Y243)
Experiment: LANCE Ultra TR-FRET kinase assay with Ulight-crosstide substrate
Format: biochemical

Chain of AKT3 (Q9Y243 2-479): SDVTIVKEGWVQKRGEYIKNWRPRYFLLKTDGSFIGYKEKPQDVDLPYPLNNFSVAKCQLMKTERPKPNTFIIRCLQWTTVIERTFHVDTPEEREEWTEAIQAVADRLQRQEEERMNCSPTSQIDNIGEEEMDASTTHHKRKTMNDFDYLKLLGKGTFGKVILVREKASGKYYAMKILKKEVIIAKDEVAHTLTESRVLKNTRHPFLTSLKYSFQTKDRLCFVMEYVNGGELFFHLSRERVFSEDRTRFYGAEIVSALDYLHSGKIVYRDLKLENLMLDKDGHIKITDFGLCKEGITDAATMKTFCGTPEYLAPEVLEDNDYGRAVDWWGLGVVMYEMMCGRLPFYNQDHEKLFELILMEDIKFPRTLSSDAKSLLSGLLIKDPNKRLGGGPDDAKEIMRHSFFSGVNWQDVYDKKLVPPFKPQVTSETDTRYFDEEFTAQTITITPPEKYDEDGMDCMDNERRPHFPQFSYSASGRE
Chain of AKT3 (O15530 whole entry partner): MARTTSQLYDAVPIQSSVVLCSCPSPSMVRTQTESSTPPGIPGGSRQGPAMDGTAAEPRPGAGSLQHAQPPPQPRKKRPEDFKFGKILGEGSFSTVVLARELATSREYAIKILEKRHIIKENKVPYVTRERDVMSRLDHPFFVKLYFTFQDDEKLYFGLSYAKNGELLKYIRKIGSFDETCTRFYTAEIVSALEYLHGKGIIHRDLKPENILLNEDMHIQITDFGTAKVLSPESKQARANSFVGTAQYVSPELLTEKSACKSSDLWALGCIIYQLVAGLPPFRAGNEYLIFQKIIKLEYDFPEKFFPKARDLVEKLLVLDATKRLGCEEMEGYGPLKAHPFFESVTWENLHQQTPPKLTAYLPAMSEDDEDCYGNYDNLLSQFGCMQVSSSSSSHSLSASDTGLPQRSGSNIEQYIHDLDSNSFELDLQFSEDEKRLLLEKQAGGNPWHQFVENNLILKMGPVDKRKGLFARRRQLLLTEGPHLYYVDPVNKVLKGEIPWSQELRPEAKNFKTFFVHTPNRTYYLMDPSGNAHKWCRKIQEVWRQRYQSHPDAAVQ

Molecule `CC(=O)N(C)[C@H]1CC[C@H](CC(=O)Nc2cc(-c3ccccc3)c(-c3ccc(C4(N)CCC4)cc3)cn2)CC1` [AKT3i, N-(5-(4-(1-aminocyclobutyl)phenyl)-4-phenylpyridin-2-yl)-2-((1r,4r)-4-(N-methylacetamido)cyclohexyl) acetamide] has an IC50 of 13 nM.
